The series can be described thus: method code SF-HPLC, from DOI: 10.1016/j.bmc.2003.11.030, PMID: 14759727.

The logD is the decadic logarithm of the distribution of all forms, ionised or not, between an organic phase and buffer at a given pH. High values mean higher lipophilicity, low ones lower lipophilicity. Turning to `O=[N+]([O-])c1ccc2[nH]c(NCCc3c[nH]cn3)nc2c1`, the logD (pH 7.4) stood at 1.81.
In turn, `COc1ccc2[nH]c(NCCc3c[nH]cn3)nc2c1` gave a logD (pH 11.0) of 1.43.
For `CCOC(=O)c1ccc2[nH]c(NCCc3c[nH]cn3)nc2c1`, the logD (pH 7.4) is 2.28.
On the same count and under the same terms, under `FC(F)(F)c1ccc2[nH]c(NCCCc3c[nH]cn3)nc2c1` stands 3.03.
As to `Nc1ccc2[nH]c(NCCCc3c[nH]cn3)nc2c1`, under “pH 11.0”, the logD came to 0.17.
Same read-out and setting: under `Nc1ccc2[nH]c(NCCc3c[nH]cn3)nc2c1` stands 0.01.
As to `CNC(=O)c1ccc2[nH]c(NCCc3c[nH]cn3)nc2c1`, under “pH 11.0”, the logD was 0.48.
`c1ccc2[nH]c(NCCCc3cnc[nH]3)nc2c1` returned a logD (pH 11.0) of 1.78.
Where the note is “pH 11.0”, `CCCCc1ccc2[nH]c(NCCc3c[nH]cn3)nc2c1` displayed a logD of 3.64.
Still for that read-out and setting: as for `c1ccc2[nH]c(NCCc3c[nH]cn3)nc2c1`, the figure is 1.49.
For `CCCCc1ccc2[nH]c(NCCCc3c[nH]cn3)nc2c1`, the logD (pH 11.0) amounted to 3.93.
In turn, `c1nc(CCNc2nc3cc4c(cc3[nH]2)OCO4)c[nH]1` displayed a logD (pH 11.0) of 1.44.
Take `Cc1ccc2[nH]c(NCCCc3c[nH]cn3)nc2c1`: where the note is “pH 11.0”, the logD came out at 2.26.
In the case of `FC(F)(F)c1ccc2[nH]c(NCCc3c[nH]cn3)nc2c1`, the logD (pH 7.4) amounted to 2.82.
On the same count and under the same terms, as for `Clc1ccc2[nH]c(NCCc3c[nH]cn3)nc2c1`, the figure is 2.31.

Values taken from the SangsterLogP compilation.
